The IC50 is the point on the concentration scale where inhibition reaches its midpoint. The low end stands for greater potency in that assay, the high end for weaker potency in that assay. As a reminder, the AUC is the area under the concentration-time curve, a measure of exposure. Broadly, the Vss is a proportionality between amount in the body and measured concentration, not a real space. By Tmax is commonly meant the time from dosing to the highest level. For orientation: clearance means a measure of how efficiently the substance is removed, as volume per time. The half-life is the time needed for the level to fall by half in the phase considered. Read a low half-life as rapid decline.

The values that follow come from PMC12561453, “Synthesis and Structure–Activity Relationship Study of 2-(amino)quinazolin-4(3H)-one Derivatives as Potential Inhibitors of Methicillin-Resistant Staphylococcus aureus (MRSA)” (Antibiotics, 2025).

≈ marks a conversion by molar mass, not a printed value. Like-named read-outs stand apart in the source and are kept apart here.

The subject of data set [1] is S. aureus ATCC25923. As to the kind of experiment: Broth microdilution dose-response, S. aureus ATCC25923. Format: cell-based, Staphylococcus aureus. The following applies: Staphylococcus aureus, ATCC25923, methicillin-sensitive strain; OD600 after 18–24 h; read-out: ATCC25923 MIC50. The text has this: The antistaphylococcal activities (MIC50) of the synthesized compounds were examined via a previously described broth microdilution method against two S. aureus strains: ATCC25923, a methicillin-sensitive reference strain, and JE2, a methicillin-resistant strain of the USA300 lineage (Figure 2, Table 1).
Staphylococcus aureus USA300, a methicillin-resistant strain, was obtained from the Nebraska Transposon Mutant Library. Staphylococcus aureus ATCC25923, a pan-drug-susceptible strain, was purchased from the American Type Culture Collection (ATCC) (Manassas, VA, USA). S. aureus strains were grown in Cation-Adjusted Mueller–Hinton broth (CAMHB) (Difco) at 37 °C. Bacterial strain stocks were stored in vials with 25% glycerol at −80 °C. For each experiment, overnight cultures were prepared by inoculating a frozen bacterial strain stock in 10 mL of CAMHB medium and incubating at 37 °C in a shaking incubator (180 rpm). For the preliminary screen and dose–response experiments, 100 µL of overnight culture was inoculated into 10 mL of fresh CAMHB and incubated for 3 h at 37 °C and 180 rpm.
Antibiotic susceptibility assay was tested according to modified Clinical and Laboratory Standards Institute (CLSI) laboratory guidelines for broth microdilution assays. S. aureus was cultured in CAMHB, and bacterial cells were prepared with an OD600 of 0.005. DRC plates were prepared by adding 40 µL of bacterial suspension to each well, where 10 µL of each compound had been dispensed for […] of two-fold serial dilutions starting at […]. After incubation of the plates at 37 °C for 18–24 h with 5% CO2, the growth of S. aureus was detected by measuring the OD600nm using an Ensight (Revvity) spectrometer (Revvity, Waltham, MA, USA).
Figure 2 In vitro antibacterial activities of 2-(amino)quinazolin-4(3H)-one derivatives. S. aureus ATCC25923 (blue) and USA300 JE (orange) strains were incubated with serial dilutions of 2-(amino)quinazolin-4(3H)-one derivatives (0.19–100 µM) for 18–24 h. The dose–responses were observed by measuring OD600nm. The plots were drawn from each group of strains with nonlinear curve fits.
(In general: In broth dilution the organism is exposed to a series of concentrations in liquid medium.)

Data set [2] concerns S. aureus USA300 JE2 expressing GFP in H460 cells. Briefly: microbe, parasite or virus in culture. Format: cell-based, Staphylococcus aureus. The following applies: for MIC50: Staphylococcus aureus, USA300, 24 h, read-out: H460 Assay MIC50 (MIC50 ex vivo). An excerpt: Staphylococcus aureus, including MRSA, can invade host cells and replicate intracellularly, which complicates treatment with current therapies. To evaluate the intracellular antibacterial activities of the selected compounds, the fifteen compounds tested for cytotoxicity were further assessed using a cell infection model based on H460 human lung epithelial cells, which mimic MRSA-mediated pneumonia. H460 cells were infected with the USA300 JE2 expressing green fluorescent protein (GFP) and subsequently treated with the compounds in a dose–response manner, along with three reference antibiotics: vancomycin, linezolid, and erythromycin. After 24 h of incubation, bacterial loads were quantified by measuring GFP fluorescence in each well. MIC50 values determined in the H460 infection model (MIC50 ex vivo) were generally higher than those obtained from the in vitro tests, likely due to either limited compound penetration into host cells or reduced antibacterial effect of the compounds against intracellular bacteria (Figure 3, Table 2). […] These findings underscore the potential of compound 6y as a promising lead for further development as a novel antistaphylococcal agent.
To see the ex vivo antimicrobial activity of the compound, the human lung carcinoma cell line H460 (ATCC #HTB-177) was used. The H460 cells were cultured in RPMI 1640 medium with 10% fetal bovine serum (FBS) and in a 96-well microplate at 37 °C and 5% CO2. Cell lines were cultured for 2 days, until they reached full confluence in the well. S. aureus (USA300-containing and pCM29-encoding GFP) was cultured in CAMHB with 10 µg/mL of chloramphenicol, and bacterial cells were harvested. After washing the bacterial cells with phosphate-buffered saline (PBS) and suspending them in RPMI, infected H460 cells with S. aureus (1 × 10^7 CFU) and incubated them for 2.5 h. Samples were washed three times with PBS. Then, cells were treated with gentamicin (50 µg/mL of gentamicin in RPMI) and incubated for 1 h. Samples were washed with PBS, RPMI-containing diluted compounds were added, and then they were incubated at 37 °C in 5% CO2 for 24 h. To detect the Green fluorescent protein (GFP) signal, an Ensight multimode plate reader and Opera Phenix Plus (Revvity, Waltham, MA, USA) were used.
Ex vivo infection model images were generated using the Opera Phenix Plus high-content imaging system. Images were obtained by a confocal microscope with a 20× water objective lens. To detect the bacteria fluorescence signal (GFP), the Alexa 488 channel (488 nm laser/500–550 filter, Thermo Fisher Scientific, Waltham, MA, USA) was used, and the brightfield channel was used for H460 cell images.
Figure 3 Antibacterial activities of 2-(amino)quinazolin-4(3H)-one derivatives in the H460 infection model. H460 cells were infected with S. aureus USA300 JE strain expressing GFP, followed by treatment with serial dilutions of 2-(amino)quinazolin-4(3H)-one derivatives. After incubation at 37 °C for 24 h with 5% CO2, fluorescence signals of the bacteria were detected at 488 nm/510 nm using a multilabel plate reader.

Data set [3] can be described thus: Cytotoxicity in VERO cells. Format: cell-based. The note with it: African green monkey, VERO cells (kidney cell line). The method, then:
(§1) Table S1. Results of hERG binding assay and cytotoxicity of 6l and 6y
(§2) Compound hERGa CytotoxicityVERO HFL-1 L929 NIH 3T3 CHO-K1
(§3) a % inhibition at 10 μM concentrations. b IC50 values in various mammalian cell lines. […]

The nature of data set [4]: Cytotoxicity in L929 cells. It is filed as cell-based. The following applies: mouse, L929 cells (NCTC clone 929, fibroblast cell line). Here is the method: as §1, §2, §3
A short description of data set [5]: Microsomal stability, rat. It is filed as in vitro ADME. The following applies: rat microsomes. Here is the method:
Table S2. Result of microsomal stability, plasma protein binding rate, and CYP inhibition of 6l and 6y
Compound MSa PPBrat human rat human 1A2 2C9 2C19 2D6 3A4
a % of remaining after 30 min. b plasma protein binding rate (%) at 5 μM concentrations. c % of CYP
inhibition in human liver microsomes at 10 μM concentrations. […]

Data set [6] is described as follows: Rat pharmacokinetic study. It is filed as in vivo. The following applies: male rats. Here is the method:
Table S3. Rat pharmacokinetic study of 6l and 6y
Parametersa I.V., 2 mg/kg P.O., 10 mg/kg I.V., 5 mg/kg P. O . , 1 0 mg/kg
Cmax ([…]) NA 0.9 NA 0.2
CL (L/h/kg) 0.25 NA 1.8 NA
a All results are mean of experiments using three male rats. b NA: not applicable

The mark [7] stands for this setting: rat, in vivo, iv, I.V., 5 mg/kg.

With `O=c1[nH]c(Nc2cc(Cl)cc(Cl)c2)nc2cc(Cl)ccc12` [6l, 7-Chloro-2-((3,5-dichlorophenyl)amino)quinazolin-4(3H)-one], the MIC50 in data set [1] was found to be 1 µM (≈ 0.341 µg/mL). In addition, in data set [2], the MIC50 was 12.1 µM (≈ 4.12 µg/mL). In data set [3], half-maximal inhibition (IC50) was put at 8.5 µM. The compound further returned a concentration for half-maximal inhibition (IC50) in data set [4] of 31.4 µM. Moreover, the “MS rat, % of remaining after 30 min” value in data set [5] was 104.7%. In data set [6] (I.V., 2 mg/kg), this compound had an AUC of 8500 ng·h/mL, a CL of 4.17 mL/min/kg, a T1/2 of 2.2 h and a Vss of 1.6 L/kg. In data set [6] (P.O., 10 mg/kg), this compound displayed an AUC of 6600 ng·h/mL, a Cmax of 0.9, a Ft of 15.6% and a T1/2 of 5.7 h. Further, the Tmax in data set [6] (P.O., 10 mg/kg) stood at 2.5 h.
As for `O=c1[nH]c(NCc2ccc(F)c(F)c2)nc2cc(Cl)ccc12` [6y, 7-Chloro-2-((3,4-difluorobenzyl)amino)quinazolin-4(3H)-one], the MIC50 was 0.36 µM (≈ 0.116 µg/mL) in data set [1] and 1.9 µM (≈ 0.611 µg/mL) in data set [2]. Further, the “distortion of H460 cell morphology (in words)” value in data set [2] (6.25 µM, brightfield images, 24 h) was “relatively minimal distortion of H460 cell morphology”. Further, the “bacterial load in infected H460 cells (in words)” value in data set [2] (6.25 µM, confocal images, 24 h) is “markedly reducing the bacterial load”. The “H460 Assay MIC50 (MIC50 ex vivo)” value in data set [2] (H460 cells infected with USA300 JE2-GFP, 24 h, GFP fluorescence) came out at 1.9 µM. Further, the values for the IC50 in data set [3] and in data set [4] were 50.5 µM and 79 µM, respectively. Further, the “MS rat, % of remaining after 30 min” value in data set [5] is reported as 53.8%. For the same compound, in data set [6] (P.O., 10 mg/kg), the Ft worked out at 33.4%. This compound also gave a clearance in data set [6] (setting [7]) of 30 mL/min/kg. The half-life is 8.5 h in data set [6] (setting [7]) and 3.6 h in data set [6] (rat, in vivo, po, P.O., 10 mg/kg). The AUC in data set [6] (rat, in vivo, iv, I.V., 5 mg/kg, read-out: AUC) stood at 2800 ng·h/mL; in data set [6] (rat, in vivo, po, P.O., 10 mg/kg, read-out: AUC), 1900 ng·h/mL. Further, the Vd in data set [6] (rat, in vivo, iv, I.V., 5 mg/kg, read-out: Vss) came out at 5.2 L/kg. In data set [6] (rat, in vivo, po, P.O., 10 mg/kg, read-out: Cmax), the Cmax was 200 ng/mL. Also, the Tmax in data set [6] (rat, in vivo, po, P.O., 10 mg/kg, read-out: Tmax) came to 5.3 h.
